The results in this text go back to patent EP0549352B1, “Tricyclic compounds as angiotensin II antagonists” (KYOWA HAKKO KOGYO CO., LTD., priority 1991, dated 1993).

One assay addresses T1, AII receptor (Bos taurus, UniProt P25104).
T1 construct: Tissue of bovine adrenal cortex was finely cut and suspended; from tissue; host or cells: bovine adrenal cortex membrane fraction
T1 sequence (P25104 1-359): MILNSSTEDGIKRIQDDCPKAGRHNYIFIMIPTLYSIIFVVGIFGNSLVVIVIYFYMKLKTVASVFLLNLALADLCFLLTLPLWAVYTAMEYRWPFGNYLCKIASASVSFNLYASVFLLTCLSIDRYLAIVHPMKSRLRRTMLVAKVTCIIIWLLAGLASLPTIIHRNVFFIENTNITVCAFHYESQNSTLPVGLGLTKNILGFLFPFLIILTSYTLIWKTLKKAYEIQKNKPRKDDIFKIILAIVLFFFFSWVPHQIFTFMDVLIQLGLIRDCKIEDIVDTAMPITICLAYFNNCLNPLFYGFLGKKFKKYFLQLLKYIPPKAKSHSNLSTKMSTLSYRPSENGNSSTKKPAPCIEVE
Kind of assay: Receptor binding test using bovine adrenal cortex ([125I]AII binding). To be noted: test compound 0.1 µM; receptor binding of [125I]AII (2.5 × 10^-10M); bovine adrenal cortex membranes; room temperature, 2 hours; read-out: Inhibition Rate (%). As to the method:
Receptor binding test using bovine adrenal cortex
Tissue of bovine adrenal cortex was finely cut and suspended in a 0.25M sucrose solution containing NaHCO3, ethylenediaminetetraacetic acid (EDTA), leupepsin, pepstatin A and phenylmethanesulfonyl fluoride, followed by homogenization. The homogenate was centrifuged at 3,000 rpm for 10 minutes and the supernatant was centrifuged at 9,000 rpm. Then, the supernatant was further centrifuged at 30,000 rpm for 60 minutes and the precipitate was suspended in NaHCO3-EDTA solution, followed by centrifugation at 30,000 rpm for 60 minutes. The resulting precipitate was suspended in a phosphate buffer and the suspension was used for the binding test as an AII receptor source.
To a test compound or a solvent were added 250 µl of the AII receptor solution prepared above, 250 µl of Tris 50 mM buffer containing 0.2% bovine serum albumin (BSA), and 20 µl of [^125I]AII (2.5 × 10^-10M). The mixture was allowed to stand at room temperature for 2 hours and then filtered through a glass fiber filter (GF/B Wattman). The filter was placed in a test tube and the radioactivity was measured using a gamma-counter.
The inhibitory activity (inhibition rate) of the test compound (0.1 µM) against the receptor binding of [^125I]AII was calculated by the following equation. Inhibition Rate (%) =(1-((Binding Amount in the Presence of a Test Compound)-(Nonspecific Binding Amount))/((Total Binding Amount)-(Nonspecific Binding Amount)))× 100 [formula]
The binding amount in the presence of a test compound is the amount of radioactivity of [^125I]AII bound in the presence of a test compound (0.1 µM).
The total binding amount is the amount of radioactivity of [^125I]AII bound in the absence of a test compound.
The nonspecific binding amount is the amount of radioactivity of [^125I]AII bound in the presence of 1 µM AII.

Assay [1] deals with hypertensive response to AII. Kind of assay: Inhibition test against hypertensive response to AII. The assay is classed as in vivo, Male Wistar rats. The note with it: test compound 1 mg/kg orally; 0.3 µg/kg AII intravenously one hour after dosing; average artery blood pressure. On the procedure:
Inhibition test against hypertensive response to AII
Male Wistar rats were anesthetized with pentobarbital. A cannula for blood pressure measurement was inserted from the right femoral artery into the abdominal aorta and another cannula for AII injection was inserted into the right femoral vein. The cannulae were passed under skin and fixed after coming out of the back, and the blood pressure was recorded on a polygraph from the artery cannula using a voltage transformer.
On the day after operation, 0.3 µg/kg AII was intravenously injected into each animal and the change in the average artery blood pressure was examined as the control pressor response. Then, a test compound (1 mg/kg) was orally administered and after one hour, 0.3 µg/kg AII was injected again, followed by examination of the pressor response. The inhibitory effect of the test compound against the control pressor response was determined as the inhibition rate.

Regarding `CCc1nc2c(C)cc(C)nc2n1Cc1ccc2c(c1)CCc1ccccc1N2Cc1nnn[nH]1` [Compound 32, 2-(5,7-Dimethyl-2-ethyl-3H-imidazo[4,5-b]pyridin-3-yl)methyl-5-(1H-tetrazol-5-yl)methyl-5H-10,11-dihydrodibenz[b,f]azepine], on AII receptor, the inhibition at 0.1 µM was 86%. The “inhibition rate against the control pressor response” value in assay [1] is 45%.
